Values quoted from earlier work in patent publication US9072786B2, “Method of manufacturing an implantable device” (Endo Pharmaceuticals Solutions Inc., priority 2008, dated 2015).

Tests used:
[1] = concentration of surfactant at which micelles form
[2] = hydrophilic-lipophilic balance of the surfactant

**Q.** Which “CMC” value [1] does the source give for `CCCCCCCC/C=C\CCCCCCCC(=O)OCCOCC(OCCO)C1OCC(OCCO)C1OCCO` (stereo not shown) [Tween 80] here?
**A.** 0.012 mM

**Q.** And the HLB [2]?
**A.** 15

**Q.** With Sucrose monolaurate as the compound, how does the “CMC” value [1] read?
**A.** 0.2 mM

**Q.** What about the HLB [2] of the same compound?
**A.** ~8
